Key:
[1] = tested on: bicistronic HCV replicon (replicon RNA, GenBank Accession No. AJ242654); assay: HCV Replicon Assay; format: cell-based; settings: Hepatitis C virus, 72 h, read-out: Replicon IC50

| Compound | IC50 [1] | melting point |
| --- | --- | --- |
| C[C@H](NS(=O)(=O)c1ccc(-c2c(C#N)c3ccc(C4CC4)cc3n2C2CCCC2)nc1)C(F)(F)F [compound 383, 6-(3-cyano-1-cyclopentyl-6-cyclopropyl-1H-indol-2-yl)-N-[(2S)-1,1,1-trifluoropropan-2-yl]pyridine-3-sulfonamide] | < 500 nM | 178 to 181 °C |
| COc1ccc2c(C#N)c(-c3ncc(S(=O)(=O)NC(CF)CF)cn3)n(C3CCCC3)c2c1 [compound 231, 2-(3-cyano-1-cyclopentyl-6-methoxy-1H-indol-2-yl)-N-(1,3-difluoropropan-2-yl)pyrimidine-5-sulfonamide] | < 500 nM | 232 to 234 °C |
| Cc1cc2c(C#N)c(-c3ccc(S(=O)(=O)NC(CF)CF)cn3)n(C3CCC3)c2cc1Cl [compound 505, 6-(6-chloro-3-cyano-1-cyclobutyl-5-methyl-1H-indol-2-yl)-N-(1,3-difluoropropan-2-yl)pyridine-3-sulfonamide] | < 500 nM | 195 to 196 °C |
| COc1ccc2c(C#N)c(-c3ccc(S(=O)(=O)N[C@@H](C)C(F)(F)F)cn3)n(C3CCCC3)c2c1 [compound 430, 6-(3-cyano-1-cyclopentyl-6-methoxy-1H-indol-2-yl)-N-[(2S)-1,1,1-trifluoropropan-2-yl]pyridine-3-sulfonamide] | < 500 nM | 209 to 216 °C |
| N#Cc1c(-c2ncc(S(=O)(=O)NC(CF)CF)cn2)n(CC2CC2)c2cc(C3CC3)ccc12 [compound 344, 2-[3-cyano-6-cyclopropyl-1-(cyclopropylmethyl)-1H-indol-2-yl]-N-(1,3-difluoropropan-2-yl)pyrimidine-5-sulfonamide] | < 500 nM | 205 to 210 °C |
| Cc1ccc2c(C#N)c(-c3ccc(S(=O)(=O)NC(CF)CF)cn3)n(-c3ccccn3)c2c1 [compound 248, 6-[3-cyano-6-methyl-1-(pyridin-2-yl)-1H-indol-2-yl]-N-(1,3-difluoropropan-2-yl)pyridine-3-sulfonamide] | < 500 nM | 159 to 162 °C |
| CC(C)NS(=O)(=O)c1cnc(-c2c(C(N)=O)c3ccc(OC(F)(F)F)cc3n2C2CCCC2)nc1 [compound 782, 1-cyclopentyl-2-[5-(propan-2-ylsulfamoyl)pyrimidin-2-yl]-6-(trifluoromethoxy)-1H-indole-3-carboxamide] | < 500 nM | 238 to 241 °C |
| Cc1ccc2c(c1)c(C#N)c(-c1ccc(S(=O)(=O)N[C@@H](C)C(F)(F)F)cn1)n2-c1ccc(F)cc1 [compound 920, 6-[3-cyano-1-(4-fluorophenyl)-5-methyl-1H-indol-2-yl]-N-[(2S)-1,1,1-trifluoropropan-2-yl]pyridine-3-sulfonamide] | < 500 nM | 195 to 200 °C |
| CCc1cc2c(cc1F)c(C#N)c(-c1ccc(S(=O)(=O)NC(C)(C)C)cn1)n2-c1ncccn1 [compound 855, N-tert-butyl-6-[3-cyano-6-ethyl-5-fluoro-1-(pyrimidin-2-yl)-1H-indol-2-yl]pyridine-3-sulfonamide] | < 500 nM | 208 to 210 °C |
| C[C@H](NS(=O)(=O)c1cnc(-c2c(C#N)c3ccc(C4CC4)cc3n2C2CCCC2)nc1)C(F)(F)F [compound 401, 2-(3-cyano-1-cyclopentyl-6-cyclopropyl-1H-indol-2-yl)-N-[(2S)-1,1,1-trifluoropropan-2-yl]pyrimidine-5-sulfonamide] | < 500 nM | 238 to 239 °C |
| C[C@H](NS(=O)(=O)c1ccc(-c2c(C#N)c3cc(Cl)ccc3n2-c2ncccn2)nc1)C(F)(F)F [compound 708, 6-[5-chloro-3-cyano-1-(pyrimidin-2-yl)-1H-indol-2-yl]-N-[(2S)-1,1,1-trifluoropropan-2-yl]pyridine-3-sulfonamide] | < 500 nM | 193 to 196 °C |
| COc1ccc2c(c1)c(C#N)c(-c1ccc(S(=O)(=O)N[C@@H](C)C(F)(F)F)cn1)n2C1CCC1 [compound 453, 6-(3-cyano-1-cyclobutyl-5-methoxy-1H-indol-2-yl)-N-[(2S)-1,1,1-trifluoropropan-2-yl]pyridine-3-sulfonamide] | < 500 nM | 181 to 183 °C |
| CC(C)NS(=O)(=O)c1cnc(-c2c(C#N)c3cc(Cl)ccc3n2C2CCC2)nc1 [compound 114, 2-(5-chloro-3-cyano-1-cyclobutyl-1H-indol-2-yl)-N-(propan-2-yl)pyrimidine-5-sulfonamide] | < 500 nM | > 198 °C (dec.) |
| Cc1ccc2c(c1)c(C#N)c(-c1ccc(S(=O)(=O)N[C@@H](C)C3CC3)cn1)n2C1CCC1 [compound 201, 6-(3-cyano-1-cyclobutyl-5-methyl-1H-indol-2-yl)-N-[(1S)-1-cyclopropylethyl]pyridine-3-sulfonamide] | < 500 nM | 173 to 178 °C |
| N#Cc1c(-c2ncc(S(=O)(=O)NC(CF)CF)cn2)n(C2CCC2)c2cc(OC(F)F)ccc12 [compound 129, 2-[3-cyano-1-cyclobutyl-6-(difluoromethoxy)-1H-indol-2-yl]-N-(1,3-difluoropropan-2-yl)pyrimidine-5-sulfonamide] | < 500 nM | 205 to 207 °C |
| C[C@@H](NS(=O)(=O)c1ccc(-c2c(C#N)c3ccc(F)cc3n2C2CCC2)nc1)C(F)(F)F [compound 215, 6-(3-cyano-1-cyclobutyl-6-fluoro-1H-indol-2-yl)-N-[(2R)-1,1,1-trifluoropropan-2-yl]pyridine-3-sulfonamide] | 500 to 2000 nM | 178 to 180 °C |
| CC(C)(C)NS(=O)(=O)c1ccc(-c2c(C#N)c3cc(F)c(C4CC4)cc3n2C2CCCC2)nc1 [compound 832, N-tert-butyl-6-(3-cyano-1-cyclopentyl-6-cyclopropyl-5-fluoro-1H-indol-2-yl)pyridine-3-sulfonamide] | < 500 nM | 186 to 188 °C |
| Cc1ccc(-n2c(-c3ccc(S(=O)(=O)N[C@@H](C)C(F)(F)F)cn3)c(C#N)c3cc(F)c(C)cc32)s1 [compound 1031, 6-[3-cyano-5-fluoro-6-methyl-1-(5-methylthiophen-2-yl)-1H-indol-2-yl]-N-[(2S)-1,1,1-trifluoropropan-2-yl]pyridine-3-sulfonamide] | < 500 nM | 246.8 to 249.4 °C |
| N#Cc1c(-c2ccc(S(=O)(=O)NC(CF)CF)cn2)n(C2CCC2)c2cc(OC(F)(F)F)ccc12 [compound 24, 6-[3-cyano-1-cyclobutyl-6-(trifluoromethoxy)-1H-indol-2-yl]-N-(1,3-difluoropropan-2-yl)pyridine-3-sulfonamide] | < 500 nM | 158 to 160 °C |
| C[C@H](NS(=O)(=O)c1ccc(-c2c(C#N)c3ccc(F)cc3n2C2CCCCC2)nc1)C1CC1 [compound 262, 6-(3-cyano-1-cyclohexyl-6-fluoro-1H-indol-2-yl)-N-[(1S)-1-cyclopropylethyl]pyridine-3-sulfonamide] | < 500 nM | 161 to 162 °C |
| CC(C)NS(=O)(=O)c1cnc(-c2c(C#N)c3ccc(OC(F)F)cc3n2C2CCC2)nc1 [compound 127, 2-[3-cyano-1-cyclobutyl-6-(difluoromethoxy)-1H-indol-2-yl]-N-(propan-2-yl)pyrimidine-5-sulfonamide] | < 500 nM | 192 to 194 °C |
| C[C@H](NS(=O)(=O)c1ccc(-c2c(Cl)c3cc(F)c(C4CC4)cc3n2-c2ncccn2)nc1)C(F)(F)F [compound 947, 6-[3-chloro-6-cyclopropyl-5-fluoro-1-(pyrimidin-2-yl)-1H-indol-2-yl]-N-[(2S)-1,1,1-trifluoropropan-2-yl]pyridine-3-sulfonamide] | < 500 nM | 248 to 250 °C |
| Cc1ccc2c(c1)c(C#N)c(-c1ncc(S(=O)(=O)NC(C)C)cn1)n2C(C)C [compound 565, 2-[3-cyano-5-methyl-1-(propan-2-yl)-1H-indol-2-yl]-N-(propan-2-yl)pyrimidine-5-sulfonamide] | < 500 nM | 175 to 177 °C |
| Cc1ccc2c(C#N)c(-c3ccc(S(=O)(=O)NC(C)(C)C(F)(F)F)cn3)n(-c3ccccc3)c2c1 [compound 585, 6-(3-cyano-6-methyl-1-phenyl-1H-indol-2-yl)-N-(1,1,1-trifluoro-2-methylpropan-2-yl)pyridine-3-sulfonamide] | < 500 nM | 210 to 212 °C |
| Cc1ccc2c(c1)c(C#N)c(-c1ccc(S(=O)(=O)NC(CF)CF)cn1)n2-c1ccccn1 [compound 504, 6-[3-cyano-5-methyl-1-(pyridin-2-yl)-1H-indol-2-yl]-N-(1,3-difluoropropan-2-yl)pyridine-3-sulfonamide] | < 500 nM | 177 to 179 °C |
| N#Cc1c(-c2ncc(S(=O)(=O)NC(CF)CF)cn2)n(C2CCCC2)c2ccc(F)cc12 [compound 240, 2-(3-cyano-1-cyclopentyl-5-fluoro-1H-indol-2-yl)-N-(1,3-difluoropropan-2-yl)pyrimidine-5-sulfonamide] | < 500 nM | 201 to 206 °C |
| C[C@@H](NS(=O)(=O)c1ccc(-c2c(C#N)c3ccc(F)cc3n2C2CCCC2)nc1)C(F)(F)F [compound 218, 6-(3-cyano-1-cyclopentyl-6-fluoro-1H-indol-2-yl)-N-[(2R)-1,1,1-trifluoropropan-2-yl]pyridine-3-sulfonamide] | < 500 nM | 141 to 144 °C |
| Cc1ccc2c(C#N)c(-c3ccc(S(=O)(=O)N[C@H](C)C(F)(F)F)cn3)n(CC3CC3)c2c1 [compound 197, 6-[3-cyano-1-(cyclopropylmethyl)-6-methyl-1H-indol-2-yl]-N-[(2R)-1,1,1-trifluoropropan-2-yl]pyridine-3-sulfonamide] | < 500 nM | 165 to 169 °C |
| Cc1cc2c(C#N)c(-c3ccc(S(=O)(=O)N[C@@H](C)C(F)(F)F)cn3)n(C3CCCC3)c2cc1Cl [compound 522, 6-(6-chloro-3-cyano-1-cyclopentyl-5-methyl-1H-indol-2-yl)-N-[(2S)-1,1,1-trifluoropropan-2-yl]pyridine-3-sulfonamide] | < 500 nM | 186 to 187 °C |

Source: patent US8735414B2 (priority 2009, dated 2014)
